From US8987514B2, “Compositions and methods for labeling and imaging phospholipids” (President and Fellows of Harvard College, priority 2009, dated 2015)

System: NIH-3T3 cells
Settings: for incorporation of azide choline analogs into phospholipids: FIG. 8 legend
Excerpt: After incorporation into phospholipids, azidophosphatidylcholine molecules can be detected by specifically reacting them with a fluorescent conjugate of dibenzo-cyclooctyne (DBCO), in a strain-promoted azide-alkyne cycloaddition reaction, also known as the copper-free “click” reaction (FIG. 9). In addition, azidophosphatidylcholine molecules can be reacted with a biotin-phosphine, followed by the detection of the biotinylated phospholipid species using labeled streptavidin (FIG. 10).
Cultured NIH-3T3 cells on coverslips were incubated overnight in complete media (DMEM with 10% bovine calf serum) in the absence or presence of 1 mM azidopropyl-choline. The cells were then washed with PBS, fixed with 3.7% formaldehyde in PBS, washed with TBS and then reacted with 40 microM biotin-phosphine in TBS supplemented with 1 mM DTT, for 3 hours at room temperature. The cells were then washed successively with TBS, 0.5 M NaCl, and TBS. Non-specific binding sites were blocked by incubation with blocking buffer (4% bovine serum albumin in TBS), followed by staining with Alexa488-streptavidin (1 microg/mL in blocking buffer). The cells were then washed with TBS (at least 4 washes, at 5 minutes each), mounted and imaged by fluorescence microscopy.
Cultured NIH-3T3 cells were transiently transfected with the plasmid pDsRed-Mito (Clontech), which labels mitochondria red. The cells were then incubated overnight in complete media, in the absence or presence of 500 microM azidoethyl-choline. The cells were washed with PBS, fixed with 3.7% formaldehyde in PBS, washed with TBS and then reacted with 20 microM Alexa488-DBCO in TBS, for 30 minutes at room temperature. Unreacted Alexa488-DBCO was removed by washing successively with TBS, 0.5 M NaCl, and TBS. The cells were then imaged by fluorescence microscopy.

Substance: azidoethyl-choline
- incorporation of azide choline analogs into phospholipids: efficiently incorporated into phospholipids in vivo
- subcellular distribution of azidoethylcholine-labeled phospholipids (NIH-3T3 cells, 500 microM overnight, DsRed-Mito marker, Alexa488-DBCO, FIG. 12): localize to several populations of cellular membranes, including the mitochondrial membrane

Substance: azidopropyl-choline
- incorporation of azide choline analogs into phospholipids: efficiently incorporated into phospholipids in vivo
